From patent US5624923A, “Tricyclic diazepine vasopressin antagonists and oxytocin antagonists” (priority 1995, dated 1997) come the findings set out here.

Several values for one entry are separate records, joined by “and”; a condition that tells them apart may be missing. Equal values may be shown once.

In one experiment the target is T1, oxytocin receptors (Rattus norvegicus, UniProt P70536).
T1 construct: The uteri are dissected out, cleaned of fat and connective tissues; from tissue; host or cells: uterus of DES-treated female Sprague-Dawley rats
T1 sequence (P70536 1-388): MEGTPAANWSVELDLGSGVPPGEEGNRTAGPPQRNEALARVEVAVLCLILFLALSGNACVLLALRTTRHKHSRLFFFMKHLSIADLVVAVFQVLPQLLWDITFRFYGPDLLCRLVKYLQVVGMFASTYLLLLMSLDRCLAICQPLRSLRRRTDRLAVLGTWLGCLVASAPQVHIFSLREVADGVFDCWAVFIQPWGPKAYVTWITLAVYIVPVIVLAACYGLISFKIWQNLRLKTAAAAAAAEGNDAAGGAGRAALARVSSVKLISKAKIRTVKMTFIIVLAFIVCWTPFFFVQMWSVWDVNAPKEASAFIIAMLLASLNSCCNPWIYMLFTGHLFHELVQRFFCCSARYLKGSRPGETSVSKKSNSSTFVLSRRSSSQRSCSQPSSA
Description: Oxytocin Receptor Binding. As to conditions: for IC50: 1.0 nM [3H]oxytocin; for inhibition at 10 µM: [3H]oxytocin. The method in brief:
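Membranes from uteri of DES-primed (0.3 mg/kg i.m., 18 h) female Sprague-Dawley rats. Competition with 1.0 nM [3H]oxytocin in 50 mM Tris.HCl pH 7.4, 5 mM MgCl2 with protease inhibitors, 60 min at 22 °C, filtration read-out. Non-specific binding with 1.0 uM unlabeled OT; IC50 calculated.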

A further experiment has as its system Vasopressin V2. Description: Vasopressin V2 Antagonist Activity in Conscious Hydrated Rats. The experiment is classed as in vivo, rat. Conditions: AVP 0.4 μg/kg i.p. The essentials: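 Four-hour urine output, osmolality and electrolytes (Na+, K+, Cl−) recorded in water-loaded rats (30 mL/kg deionized water orally) given AVP i.p. at 0.4 μg/kg. Test compounds were given orally at 0.1–100 mg/kg 1 h before AVP; 2–4 rats per compound.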

The next experiment concerns Vasopressin V1. Description: Vasopressin V1 Antagonist Activity in Conscious Rats (vasopressin vasopressor response). The class given is in vivo, rat. The arrangement: Average Change: unit not given here. As to conditions: for % Inhibition / Average Change: SHR. The essentials:
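Conscious rats are restrained supine, and under local 2% procaine a PE 10/20 cannula is passed through the ventral caudal tail artery into the lower abdominal aorta. The caudal vein is cannulated for intravenous dosing. Blood pressure is recorded with a Statham P23Db transducer, and vasopressin injections are repeated after compound dosing. Percent antagonism is calculated against the pre-drug vasopressor response taken as 100%.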

The mark [1] stands for this setting: 3 mg/kg i.v., VAS 0.01 i.u./kg, 30 min.
The mark [2] stands for this setting: 3 mg/kg i.v., VAS 0.01 i.u./kg, 60 min.
[3] abbreviates: 3 mg/kg i.v., VAS 0.01 i.u./kg, 90 min.
The mark [4] stands for this setting: 3 mg/kg i.v., VAS 0.01 i.u./kg, 120 min.
Setting [5] is: 3 mg/kg i.v., VAS 0.01 i.u./kg, 180 min.
The mark [6] stands for this setting: 3 mg/kg i.v., VAS 0.01 i.u./kg, 240 min.
The mark [7] stands for this setting: 3 mg/kg i.v., VAS 0.01 i.u./kg, 300 min.
Setting [8] is: 3 mg/kg i.v., VAS 0.02 i.u./kg, 30 min.
The mark [9] stands for this setting: 3 mg/kg i.v., VAS 0.02 i.u./kg, 60 min.
[10] abbreviates: 3 mg/kg i.v., VAS 0.02 i.u./kg, 90 min.
[11] abbreviates: 3 mg/kg i.v., VAS 0.02 i.u./kg, 120 min.
[12] abbreviates: 3 mg/kg i.v., VAS 0.02 i.u./kg, 300 min.
Setting [13] is: 10 mg/kg p.o., VAS 0.01 i.u./kg, 30 min.
Where [14] appears, read: 10 mg/kg p.o., VAS 0.01 i.u./kg, 60 min.
[15] abbreviates: 10 mg/kg p.o., VAS 0.01 i.u./kg, 120 min.
Where [16] appears, read: 10 mg/kg p.o., VAS 0.01 i.u./kg, 300 min.
Setting [17] is: 10 mg/kg p.o., VAS 0.02 i.u./kg, 30 min.
Setting [18] is: 10 mg/kg p.o., VAS 0.02 i.u./kg, 60 min.
Setting [19] is: 10 mg/kg p.o., VAS 0.02 i.u./kg, 300 min.
[20] abbreviates: 30 mg/kg p.o., VAS 0.01 i.u./kg, 30 min.
Where [21] appears, read: 30 mg/kg p.o., VAS 0.01 i.u./kg, 60 min.
Where [22] appears, read: 30 mg/kg p.o., VAS 0.01 i.u./kg, 90 min.
The mark [23] stands for this setting: 30 mg/kg p.o., VAS 0.01 i.u./kg, 120 min.
The mark [24] stands for this setting: 30 mg/kg p.o., VAS 0.01 i.u./kg, 180 min.
[25] abbreviates: 30 mg/kg p.o., VAS 0.01 i.u./kg, 240 min.
Setting [26] is: 30 mg/kg p.o., VAS 0.02 i.u./kg, 30 min.
Where [27] appears, read: 30 mg/kg p.o., VAS 0.02 i.u./kg, 60 min.
Setting [28] is: 30 mg/kg p.o., VAS 0.02 i.u./kg, 90 min.
Where [29] appears, read: 30 mg/kg p.o., VAS 0.02 i.u./kg, 120 min.
The mark [30] stands for this setting: 30 mg/kg p.o., VAS 0.02 i.u./kg, 180 min.
The mark [31] stands for this setting: 30 mg/kg p.o., VAS 0.02 i.u./kg, 240 min.

For orientation: IC50 means the point on the concentration scale where inhibition reaches its midpoint. For orientation: inhibition means the drop in the measured response relative to a control, in per cent. On to `Cc1c(F)cccc1C(=O)Nc1ccc(C(=O)N2Cc3ccnn3Cc3ccccc32)cc1` [Example 517, N-[4-(4H-Pyrazolo[5,1-c][1,4]benzodiazepin-5(10H)-ylcarbonyl)phenyl]-3-fluoro-2-methylbenzamide], for which, at oxytocin receptors, the IC50 was determined as 320 nM and the inhibition at 10 µM came to 91%. In the experiment with Vasopressin V2 (10 mg/kg orally), the Osmolality stood at 411 mOsm/kg and the “Urine Volume” value stood at 14.7 ml/4 hrs. In the experiment on Vasopressin V1 (10 mg/kg i.v.), the “Max. % Inhibition” value was 81% and the “Time (of max. % inhibition)” value is recorded as 90 min.

As a reminder, the % Inhibition is the relative decrease from the control value, in per cent. `Cc1ccccc1C(=O)Nc1ccc(C(=O)N2Cc3cccn3Cc3ccccc32)cc1` [Example 3, 2-Methyl-N-[4-(5H-pyrrolo[2,1-c][1,4]-benzodiazepin-10(11H)-ylcarbonyl)phenyl]benzamide]: the half-maximal inhibitory concentration (IC50) on oxytocin receptors came out at 360 nM. In addition, the inhibition at 10 µM on oxytocin receptors is 90%. Moreover, the Osmolality in the experiment on Vasopressin V2 (1 mg/kg orally) stood at 515 ± 79 mOsm/kg; with Vasopressin V2 (3 mg/kg orally), 584 ± 56 mOsm/kg; in the experiment on Vasopressin V2 (10 mg/kg orally), 567 ± 33 mOsm/kg. Besides, the “Urine Volume” value in the experiment with Vasopressin V2 (1 mg/kg orally) is on record as 6.5 ± 1 ml/4 hrs; with Vasopressin V2 (3 mg/kg orally) it was 9.6 ± 0.9 ml/4 hrs; in the experiment on Vasopressin V2 (10 mg/kg orally), 15.8 ± 1 ml/4 hrs. The “% Inhibition” value is 70% and 69% in the experiment with Vasopressin V1 (setting [1]); 75% and 57% with Vasopressin V1 (setting [2]); 65% and 76% with Vasopressin V1 (setting [3]); 60% and 58% in the experiment on Vasopressin V1 (setting [4]); 40% and 57% in the experiment on Vasopressin V1 (setting [5]); 20% and 35% with Vasopressin V1 (setting [6]). For the same compound, the “% Inhibition” value with Vasopressin V1 (setting [7]) is 61%; in the experiment with Vasopressin V1 (setting [8]), 57%; with Vasopressin V1 (setting [9]) it was 68% and 44%; in the experiment with Vasopressin V1 (setting [10]), 73% and 46%; with Vasopressin V1 (setting [11]) it was 41% and 64%; in the experiment on Vasopressin V1 (setting [12]) it was 41%. For the same compound, the “% Inhibition” value is 78% and 71% and 73% in the experiment with Vasopressin V1 (setting [13]); 70% and 71% in the experiment with Vasopressin V1 (setting [14]); 81% and 70% in the experiment with Vasopressin V1 (10 mg/kg p.o., VAS 0.01 i.u./kg, 90 min); 74% and 59% and 69% in the experiment with Vasopressin V1 (setting [15]); 65% and 77% and 61% in the experiment on Vasopressin V1 (10 mg/kg p.o., VAS 0.01 i.u./kg, 180 min); 61% and 76% and 51% in the experiment with Vasopressin V1 (10 mg/kg p.o., VAS 0.01 i.u./kg, 240 min). Besides, the “% Inhibition” value in the experiment on Vasopressin V1 (setting [16]) is 59%; with Vasopressin V1 (setting [17]) it was 65% and 66% and 70%; in the experiment with Vasopressin V1 (setting [18]), 55% and 66% and 58%; with Vasopressin V1 (setting [19]), 56%; in the experiment on Vasopressin V1 (setting [20]), 72%; with Vasopressin V1 (setting [21]), 57%. For the same compound, the “% Inhibition” value is reported as 81% in the experiment on Vasopressin V1 (setting [22]); 81% in the experiment with Vasopressin V1 (setting [23]); 81% in the experiment on Vasopressin V1 (setting [24]); 91% with Vasopressin V1 (setting [25]); 62% in the experiment on Vasopressin V1 (setting [26]); 57% in the experiment with Vasopressin V1 (setting [27]). Also, the “% Inhibition” value in the experiment on Vasopressin V1 (setting [28]) was determined as 62%; in the experiment on Vasopressin V1 (setting [29]), 76%; with Vasopressin V1 (setting [30]), 67%; in the experiment on Vasopressin V1 (setting [31]), 81%. For the same compound, the “Average Change” value is 15 in the experiment with Vasopressin V1 (setting [1]); 12.5 and 21 in the experiment with Vasopressin V1 (setting [2]); 17.5 and 12 in the experiment on Vasopressin V1 (setting [3]); 20 and 20.5 in the experiment on Vasopressin V1 (setting [4]); 30 and 21 in the experiment on Vasopressin V1 (setting [5]); 40 and 32 in the experiment on Vasopressin V1 (setting [6]). In addition, the “Average Change” value with Vasopressin V1 (setting [7]) was 19; in the experiment on Vasopressin V1 (setting [8]) it was 23.5 and 22; with Vasopressin V1 (setting [9]) it was 17.5 and 29; in the experiment with Vasopressin V1 (setting [10]) it was 15 and 28; in the experiment on Vasopressin V1 (setting [11]) it was 32.5 and 18.5; in the experiment with Vasopressin V1 (3 mg/kg i.v., VAS 0.02 i.u./kg, 180 min), 55 and 28.5. In addition, the “Average Change” value with Vasopressin V1 (3 mg/kg i.v., VAS 0.02 i.u./kg, 240 min) is 52.5 and 27.5; with Vasopressin V1 (setting [12]), 30.5; in the experiment on Vasopressin V1 (setting [13]) it was 12.5 and 10 and 11; in the experiment on Vasopressin V1 (setting [14]) it was 17.5 and 10.5 and 11.5; in the experiment on Vasopressin V1 (setting [15]), 15 and 14.5 and 12.5; in the experiment on Vasopressin V1 (setting [16]) it was 16.5. For the same compound, the “Average Change” value in the experiment with Vasopressin V1 (setting [17]) is 17.5 and 18.5 and 16; in the experiment on Vasopressin V1 (setting [18]) it was 22.5 and 18.5; in the experiment on Vasopressin V1 (setting [19]) it was 24; in the experiment on Vasopressin V1 (setting [20]), 15; in the experiment with Vasopressin V1 (setting [21]) it was 22.5; in the experiment on Vasopressin V1 (setting [22]) it was 10. The “Average Change” value in the experiment with Vasopressin V1 (setting [23]) amounted to 10; in the experiment with Vasopressin V1 (setting [24]) it was 10; in the experiment on Vasopressin V1 (setting [25]), 5; in the experiment on Vasopressin V1 (setting [26]) it was 20; in the experiment with Vasopressin V1 (setting [27]), 22.5; with Vasopressin V1 (setting [28]), 20. The “Average Change” value in the experiment with Vasopressin V1 (setting [29]) worked out at 12.5; with Vasopressin V1 (setting [30]), 17.5; with Vasopressin V1 (setting [31]) it was 10.

`Cc1ccccc1C(=O)Nc1ccc(C(=O)N2Cc3ccc(C(=O)C(F)(F)F)n3Cc3ccccc32)c(Cl)c1` [Example 595, N-[4-[[3-(Trifluoroacetyl)-5H-pyrrolo[2,1-c][1,4]benzodiazepin-10(11H)-yl]carbonyl]-3-chlorophenyl]-2-methylbenzamide] showed an inhibition at 10 µM at oxytocin receptors of 49%. Also, in the experiment with Vasopressin V2 (10 mg/kg orally), the Osmolality is given as 1474 mOsm/kg and the “Urine Volume” value is recorded as 8.3 ml/4 hrs. Further, in the experiment on Vasopressin V1 (30 mg/kg i.v.), the “Max. % Inhibition” value is 44% and the “Time (of max. % inhibition)” value was found to be 90 min.

Consider `O=C(Nc1ccc(C(=O)N2Cc3cccn3-c3ccccc32)cc1)c1ccc(Cl)cc1Cl` [Example 17, N-[4-(pyrrolo(1,2-a]quinoxalin-5(4H)-ylcarbonyl)phenyl]-2,4-dichloro-benzamide], for which 10 µM produced 31% inhibition on oxytocin receptors. In addition, in the experiment with Vasopressin V2 (30 mg/kg orally), the Osmolality is listed as 1374 mOsm/kg and the “Urine Volume” value is listed as 4.1 ml/4 hrs. In the experiment with Vasopressin V1 (30 mg/kg i.v.), the “Max. % Inhibition” value was determined as 50% and the “Time (of max. % inhibition)” value is recorded as 60 min.

`O=C(CN1CCOCC1)Nc1ccc(C(=O)N2Cc3cccn3Cc3ccccc32)cc1` [Example 590, N-[4-(5H-pyrrolo[2,1-c][1,4]benzodiazepin-10(11H)-ylcarbonyl)phenyl]-4-morpholineacetamide] came in with an inhibition at 10 µM at oxytocin receptors of 12%. Also, in the experiment on Vasopressin V2 (10 mg/kg orally), the Osmolality is 1355 mOsm/kg and the “Urine Volume” value amounted to 3 ml/4 hrs. In addition, in the experiment on Vasopressin V1 (30 mg/kg i.v.), the “Max. % Inhibition” value was 89% and the “Time (of max. % inhibition)” value stood at 120 min.
